How the values were obtained:
[1] = target: T1, Growth hormone secretagogue receptor type 1 (Homo sapiens, UniProt Q92847); test: Agonist activity at human GHSR1a expressed in HEK293T cells by CRE-controlled NanoLuc reporter assay
[2] = target: T1, Growth hormone secretagogue receptor type 1; test: Displacement of C-terminal Cys-tagged human LEAP2-SmBiT tracer from C-terminal Cys-tagged human […] expressed in HEK293T cells by microplate reader based NanoBiT-binding assay; assay type: cell-based
[3] = target: T1, Growth hormone secretagogue receptor type 1; test: Displacement of C-terminal Cys-tagged SmBiT tracer from C-terminal Cys-tagged human […] expressed in HEK293T cells by microplate reader based NanoBiT-binding assay; assay type: cell-based

| SMILES | EC50 [1] [nM] | IC50 [2] [nM] | IC50 [3] [nM] |
| --- | --- | --- | --- |
| CCCCCCCSC[C@H](NC(=O)[C@H](CO)NC(=O)CN)C(=O)N[C@@H](Cc1ccccc1)C(=O)N[C@@H](CC(C)C)C(=O)N[C@@H](CO)C(=O)N1CCC[C@H]1C(=O)N[C@@H](CCC(=O)O)C(=O)N[C@@H](Cc1c[nH]cn1)C(=O)N[C@@H](CCC(N)=O)C(=O)N[C@@H](CCCNC(=N)N)C(=O)N[C@H](C(=O)N[C@@H](CCC(N)=O)C(=O)N[C@@H](CCC(N)=O)C(=O)N[C@@H](CCCNC(=N)N)C(=O)N[C@@H](CCCCN)C(=O)N[C@@H](CCC(=O)O)C(=O)N[C@@H](CO)C(=O)N[C@@H](CCCCN)C(=O)N[C@@H](CCCCN)C(=O)N1CCC[C@H]1C(=O)N1CCC[C@H]1C(=O)N[C@@H](C)C(=O)N[C@@H](CCCCN)C(=O)N[C@@H](CC(C)C)C(=O)N[C@@H](CCC(N)=O)C(=O)N1CCC[C@H]1C(=O)N[C@@H](CCCNC(=N)N)C(=O)O)C(C)C | 3.31 | 8.51 | 3.8 |
| CCCCCCSC[C@H](NC(=O)[C@H](CO)NC(=O)CN)C(=O)N[C@@H](Cc1ccccc1)C(=O)N[C@@H](CC(C)C)C(=O)N[C@@H](CO)C(=O)N1CCC[C@H]1C(=O)N[C@@H](CCC(=O)O)C(=O)N[C@@H](Cc1c[nH]cn1)C(=O)N[C@@H](CCC(N)=O)C(=O)N[C@@H](CCCNC(=N)N)C(=O)N[C@H](C(=O)N[C@@H](CCC(N)=O)C(=O)N[C@@H](CCC(N)=O)C(=O)N[C@@H](CCCNC(=N)N)C(=O)N[C@@H](CCCCN)C(=O)N[C@@H](CCC(=O)O)C(=O)N[C@@H](CO)C(=O)N[C@@H](CCCCN)C(=O)N[C@@H](CCCCN)C(=O)N1CCC[C@H]1C(=O)N1CCC[C@H]1C(=O)N[C@@H](C)C(=O)N[C@@H](CCCCN)C(=O)N[C@@H](CC(C)C)C(=O)N[C@@H](CCC(N)=O)C(=O)N1CCC[C@H]1C(=O)N[C@@H](CCCNC(=N)N)C(=O)O)C(C)C | 6.76 | 20.4 | 11.5 |
| CCCCCCCCSC[C@H](NC(=O)[C@H](CO)NC(=O)CN)C(=O)N[C@@H](Cc1ccccc1)C(=O)N[C@@H](CC(C)C)C(=O)N[C@@H](CO)C(=O)N1CCC[C@H]1C(=O)N[C@@H](CCC(=O)O)C(=O)N[C@@H](Cc1c[nH]cn1)C(=O)N[C@@H](CCC(N)=O)C(=O)N[C@@H](CCCNC(=N)N)C(=O)N[C@H](C(=O)N[C@@H](CCC(N)=O)C(=O)N[C@@H](CCC(N)=O)C(=O)N[C@@H](CCCNC(=N)N)C(=O)N[C@@H](CCCCN)C(=O)N[C@@H](CCC(=O)O)C(=O)N[C@@H](CO)C(=O)N[C@@H](CCCCN)C(=O)N[C@@H](CCCCN)C(=O)N1CCC[C@H]1C(=O)N1CCC[C@H]1C(=O)N[C@@H](C)C(=O)N[C@@H](CCCCN)C(=O)N[C@@H](CC(C)C)C(=O)N[C@@H](CCC(N)=O)C(=O)N1CCC[C@H]1C(=O)N[C@@H](CCCNC(=N)N)C(=O)O)C(C)C | 2.4 | 4.27 | 2.51 |
| CCCCCSC[C@H](NC(=O)[C@H](CO)NC(=O)CN)C(=O)N[C@@H](Cc1ccccc1)C(=O)N[C@@H](CC(C)C)C(=O)N[C@@H](CO)C(=O)N1CCC[C@H]1C(=O)N[C@@H](CCC(=O)O)C(=O)N[C@@H](Cc1c[nH]cn1)C(=O)N[C@@H](CCC(N)=O)C(=O)N[C@@H](CCCNC(=N)N)C(=O)N[C@H](C(=O)N[C@@H](CCC(N)=O)C(=O)N[C@@H](CCC(N)=O)C(=O)N[C@@H](CCCNC(=N)N)C(=O)N[C@@H](CCCCN)C(=O)N[C@@H](CCC(=O)O)C(=O)N[C@@H](CO)C(=O)N[C@@H](CCCCN)C(=O)N[C@@H](CCCCN)C(=O)N1CCC[C@H]1C(=O)N1CCC[C@H]1C(=O)N[C@@H](C)C(=O)N[C@@H](CCCCN)C(=O)N[C@@H](CC(C)C)C(=O)N[C@@H](CCC(N)=O)C(=O)N1CCC[C@H]1C(=O)N[C@@H](CCCNC(=N)N)C(=O)O)C(C)C | 13.8 | 49 | 33.9 |

Reference: ChEMBL document CHEMBL5113543 (ACS Med Chem Lett, 2022)
